This is an account of results in patent US5110831A, “Vinylogous hydroxamic acids and derivatives thereof as 5-lipoxygenase inhibitors” (Du Pont Merck Pharmaceutical Company, priority 1990, dated 1992).

pIC50: −log10 of the molar value.

Test [1] concerns the target T1, RBL-1 5-Lipoxygenase (Rattus norvegicus, UniProt P12527).
T1 construct: supernatant from homogenized RBL-1 cells; endogenous in cells; host or cells: RBL-1 cells (10,000×g supernatant of homogenate)
T1 sequence (P12527 1-673): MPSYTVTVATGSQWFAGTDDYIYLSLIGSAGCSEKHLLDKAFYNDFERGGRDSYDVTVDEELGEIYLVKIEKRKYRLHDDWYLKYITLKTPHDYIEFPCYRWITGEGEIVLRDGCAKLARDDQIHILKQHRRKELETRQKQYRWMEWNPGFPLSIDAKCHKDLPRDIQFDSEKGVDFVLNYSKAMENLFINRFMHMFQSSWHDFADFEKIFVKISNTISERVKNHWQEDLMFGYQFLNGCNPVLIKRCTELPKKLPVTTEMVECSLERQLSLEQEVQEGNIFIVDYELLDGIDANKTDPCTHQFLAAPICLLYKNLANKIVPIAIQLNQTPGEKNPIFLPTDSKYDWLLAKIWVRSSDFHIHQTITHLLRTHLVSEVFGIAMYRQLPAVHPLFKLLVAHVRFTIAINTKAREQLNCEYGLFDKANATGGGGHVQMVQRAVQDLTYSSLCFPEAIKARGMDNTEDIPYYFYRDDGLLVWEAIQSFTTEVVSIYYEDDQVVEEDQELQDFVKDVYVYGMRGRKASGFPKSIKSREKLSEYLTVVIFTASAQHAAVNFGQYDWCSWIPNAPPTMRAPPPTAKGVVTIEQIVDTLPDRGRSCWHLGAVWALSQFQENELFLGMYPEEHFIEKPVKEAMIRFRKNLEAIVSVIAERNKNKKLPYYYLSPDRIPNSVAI
Description: RBL-1 5-lipoxygenase assay (10,000×g supernatant from homogenized RBL-1 cells, [14C] arachidonic acid). The format is biochemical. The settings on record: pH 7.0, 37° C., 5 min preincubation, 0.042 mM arachidonic acid; linear regression on three concentrations. How it is done: The potencies of the compounds as 5-lipoxygenase inhibitors were determined using a RBL-1 5-lipoxygenase assay. The procedure of Jakschik et al. was used (Jakschik, B. A.; Lee, L. H.; Shuffer, G.; Parker, C. W., Prostaglandins, 1978, 16, 733; Jakschik, B. A.; Sun, F. F.; Lee, L. H.; Steinhoff, M. M. Biochem. Biophys. Res. Commun., 1980, 95, 100; […]., Biochem. Biophys. Res. Commun., 1981, 102, 624). The enzyme was prepared as a 10,000×gsupernatant from homogenized RBL-1 cells. Because of variability in the enzyme content from culture to culture, an amount of supernatant was chosen to give a net production of 3300-3800 dpm of 5-HETE under the assay conditions (total cell protein 9-20 μg/assay). All reactions were run in duplicate. In a total volume of 100 μL, the appropriate amount of enzyme was incubated with test compound (prepared in 5% DMSO, 95% 0.2 M Tris, pH 8.5) in a phosphate buffer (45 mM sodium phosphate, 0.83 mM EDTA, 0.083% gelatin, 0.1 mM glutathione, 0.83 mM calcium chloride, 0.012 mM indomethacin) at pH 7.0 and 37° C. for 5 min. The reaction was initiated by the addition of 20 μL of a solution of arachidonic acid in phosphate buffer. […] Remaining products were eluted with methanol/water/acetic acid (70:30:1). Activity was measured as the total radioactivity in the 5-LO products, and inhibition was calculated at (1-D/C)×100%, where D is the activity in the presence of the test compound and C is the control activity.

For test [2], the system named is inflammatory cells such as polymorphonuclear leukocytes. The settings on record: cited from earlier work.
The conditions of test [3]: cited from earlier work.
For test [4] the following is noted: times the activity of histamine; cited from earlier work.

In general, pIC50 refers to −log10 of the IC50, conventionally taken in molar units. For `O=C(C=CN(O)Cc1ccc(OCc2ccccc2)cc1)C1CC1` [Example 1e], the pIC50 in test [1] is 5.51.
Compound `CN(O)C=CC(=O)c1ccc(OCc2ccccc2)cc1` [Example 1a, 1-(4-(Benzyloxy)phenyl)-3-(N-hydoxy-N-methyl)aminoprop-2-en-1-one] gave a pIC50 in test [1] of 5.80. This pIC50 is 0.29 log units higher than that of the compound before.
Turning to `CCCCC/C=C\C[C@@H](O)/C=C/C=C/C=C\[C@@H](O)CCCC(=O)O` [LTB4], in test [2], the “chemotactic activity for inflammatory cells” value was “potent chemotactic factors”.
As to `CCCCC/C=C\C\C=C/C=C/C=C/[C@@H](SC[C@H](NC(=O)CC[C@H](N)C(=O)O)C(=O)NCC(=O)O)[C@@H](O)CCCC(=O)O` [LTC4], in test [3], the “effect of inhaled LTC4” value was “causes the immediate development of symptoms resembling those of an asthmatic attack”. In test [4], the “spasmogen activity relative to histamine” value is given as 1000 times.
The compound `O=C(C=CN(O)Cc1ccccc1)c1ccc2ccccc2c1` [Example 2a, 1-(2-naphthyl)-3-(N-hydoxy-N-benzyl) aminoprop-2-en-1-one] had a pIC50 in test [1] of 5.64.
The same measure, in the same setting: under `CC(=O)C=CN(O)Cc1ccc(OCc2ccccc2)cc1` [Example 3a] stands 5.11.
As for `CCCCC/C=C\C\C=C/C=C/C=C/[C@@H](SC[C@H](N)C(=O)O)[C@@H](O)CCCC(=O)O` [LTE4], the “spasmogen activity relative to histamine” value in test [4] is 1000 times.
With `CCCCC/C=C\C\C=C/C=C/C=C/[C@@H](SC[C@H](N)C(=O)NCC(=O)O)[C@@H](O)CCCC(=O)O` [LTD4], the “spasmogen activity relative to histamine” value in test [4] is 1000 times.
Compound `O=C(C=CN(O)Cc1ccc2ccccc2c1)C1CC1` [Example 1j] had a pIC50 in test [1] of 5.82.
On the same count and under the same terms, under `O=C(C=CN(O)C1CCCCC1)c1ccc2ccccc2c1` [Example 1c] stands 5.60; under `O=C(C=CN(O)Cc1ccccc1)c1ccc(Cl)cc1` [Example 2e], 6.60.
On the same count and under the same terms, next, `CN(O)C=CC(=O)c1cc2ccccc2s1` [Example 1i]: 6.36.
Same read-out and setting: next, `O=C(C=CN(O)c1ccccc1)c1ccc2ccccc2c1` [Example 2b]: 5.96.
The compound `CC(c1ccc2ccccc2c1)N(O)C=CC(=O)c1ccc2ccccc2c1` (stereo not drawn) [Example 1b] gave a negative logarithm of the IC50 (pIC50) in test [1] of 5.66.
